Assay [1] deals with S. aureus 133 Translation. As to the kind of experiment: S. aureus in vitro transcription-translation assay (S30 extract, firefly luciferase reporter). It is filed as biochemical. The source says: In vitro Transcription-Translation with S. aureus Extracts
Construction of an S. aureus Luciferase Reporter Plasmid
A reporter plasmid which can be used in an in vitro transcription-translation assay from S. aureus is constructed by using the plasmid pBESTluc (Promega Corporation, USA). The E. coli tac promoter present in this plasmid in front of the firefly luciferase is replaced by the capA1 promoter with appropriate Shine-Dalgarno sequence from S. aureus. The primers CAPFor 5′-CGGCCAAGCTTACTCGGAT-[…] […]-3′ and CAPRev 5′-[…]-3′ are used for this. The primer CAPFor contains the capA1 promoter, the ribosome binding site and the 5′ region of the luciferase gene. After PCR using pBESTluc as template it is possible to isolate a PCR product which contains the firefly luciferase gene with the fused capA1 promoter. This is, after restriction with ClaI and HindIII, ligated into the vector pBESTluc which has likewise been digested with ClaI and HindIII. The resulting plasmid pla is able to replicate in E. coli and be used as template in the S. aureus in vitro transcription-traslation assay.
Preparation of S30 Extracts from S. aureus
Six litres of BHI medium are inoculated with a 250 ml overnight culture of an S. aureus strain and allowed to grow at 37° C. until the OD600 run is 2-4. The cells are harvested by centrifugation and washed in 500 ml of cold buffer A (10 mM Tris acetate, pH 8.0, 14 mM Magnesium acetate, 1 mM DTT, 1 M KCl). After renewed centrifugation, the cells are washed in 250 ml of cold buffer A with 50 mM KCl, and the resulting pellets are frozen at −20° C. for 60 min. The pellets are thawed on ice in 30 to 60 min and taken up to a total volume of 99 ml in buffer B (10 mM Tris acetate, pH 8.0, 20 mM Magnesium acetate, 1 mM DTT, 50.mM KCl). 1.5 ml portions of lysostaphin (0.8 mg/ml) in buffer B are introduced into 3 precooled centrifuge cups and each mixed with 33 ml of the cell suspension. The samples are incubated at 37° C., shaking occasionally, for 45 to 60 min, before 150 μl of a 0.5 M DTT solution are added. The lysed cells are centrifuged at 30 000×g and 4° C. for 30 min. The cell pellet is taken up in buffer B and then centrifuged again under the same conditions, and the collected supernatants are combined. The supernatants are centrifuged again under the same conditions, and 0.25 volume of buffer C (670 mM Tris acetate, pH 8.0, 20 mM Magnesium acetate, 7 mM Na3 phosphoenolpyruvate, 7 mM DTT, 5.5 mM ATP, 70 μM amino acids (complete from Promega), 75 μg of pyruvate kinase (Sigma, Germany)/ml are added to the upper ⅔ of the supernatant. The samples are incubated at 37° C. for 30 min. The supernatants are dialysed against 2 l of dialysis buffer (10 mM Tris acetate, pH 8.0, 14 mM Magnesium acetate, 1 mM DTT, 60 mM Potassium acetate) in a dialysis tube with a 3500 Da cut-off with one buffer change at 4° C. overnight. The dialysate is concentrated to a protein concentration of about 10 mg/ml by covering the dialysis tube with cold PEG 8000 powder (Sigma, Germany) at 4° C. The S30 extracts can be stored in aliquots at −70° C.
Determination of the IC50 in the S. aureus in vitro Transcription-Translation Assay Inhibition of protein biosynthesis of the compounds can be shown in an in vitro transcription-translation assay. The assay is based on the cell-free transcription and translation of firefly luciferase using the reporter plasmid pla as template and cell-free S30 extracts obtained from S. aureus. The activity of the resulting luciferase can be detected by luminescence measurement.
The amount of S30 extract or plasmid pla to be employed must be tested anew for each preparation in order to ensure an optimal concentration in the assay. 3 μl of the substance to be tested, dissolved in 5% DMSO, are introduced into an MTP. Then 10 μl of a suitably concentrated plasmid solution pla are added. […]

Assay [2] relates to E. faecium L4001. As to the kind of experiment: MIC, alternative method: agar dilution test with 20% defibrinated horse blood. It is filed as cell-based. Particulars: Enterococcus faecium. As to the method: (§1) Alternative Method for Determining the Minimum Inhibitory Concentration (MIC)
(§2) The minimum inhibitory concentration (MIC) is the minimum concentration of an antibiotic with which the growth of a test microbe is inhibited over 18-24 h. The inhibitor concentration can be determined by standard microbiological methods using modified medium in an agar dilution test (see, for example, the National Committee for Clinical Laboratory Standards. Methods for dilution antimicrobial susceptibility tests for bacteria that grow aerobically; approved standard-fifth edition. NCCLS document M7-A5 [ISBN 1-56238-394-9]. NCCLS, 940 West Valley Road, Suite 1400, Wayne, Pa. 19087-1898 USA, 2000). The bacterial microbes are cultivated on 1.5% agar plates containing 20% defibrinated horse blood. The test microbes, which are incubated on Columbia blood agar plates (Becton-Dickinson) overnight, are diluted in PBS, adjusted to a microbe count of about 5×10^5 microbes/ml and placed as drops (1-3 μl) on test plates. The test substances contain various dilutions of the test substances (1:2 dilution stages). The cultures are incubated at 37° C. in the presence of 5% CO2 for 18-24 hours.
(§3) The lowest concentration of each substance at which no visible bacterial growth occurs is defined as the MIC and is reported in μg/ml.

For assay [3], the system named is S. aureus E33. The description is as above. It is filed as cell-based. Particulars: Staphylococcus aureus. On the procedure: as §1, §2, §3
Assay [4] deals with S. aureus T17. The description is as above. The format is cell-based. The following applies: Staphylococcus aureus. On the procedure: as §1, §2, §3
Where [5] appears, read: L4001, read-out: MIC E. faecium L4001.
The mark [6] stands for this setting: E33, read-out: MIC S. aureus E33.
[7] abbreviates: T17, read-out: MIC S. aureus T17.

Structures are written as SMILES. Values after ≈ are worked out from the molar mass of the structure shown. Where a name gives a salt, the structure may show the parent alone. Read-outs that look alike come from different tables or passages of the source. Where only a bound is given, the exact number is not on record here.

For `CN1C(=O)[C@H](C[C@@H](O)CN)NC(=O)[C@@H](N)Cc2cc(ccc2O)-c2ccc(O)c(c2)C[C@H]1C(=O)NCCN` [Example 1, (8S,11S,14S)-14-amino-N-(2-aminoethyl)-11-[(2R)-3-amino-2-hydroxypropyl]-5,17-dihydroxy-9-methyl-10,13-dioxo-9,12-diazatricyclo[14.3.1.1.^2,6]henicosa-1(20),2(21),3,5,16,18-hexaene-8-carboxamide, trihydrochloride], the IC50 in assay [1] (Table A) and in assay [1] (Table B) was 100 nM throughout. The minimal inhibitory concentration (MIC) stood at 16 µg/mL in assay [2] (setting [5]), 4 µg/mL in assay [3] (setting [6]) and 4 µg/mL in assay [4] (setting [7]).

`NCCC[C@@H]1NC(=O)[C@@H](N)Cc2cc(ccc2O)-c2ccc(O)c(c2)C[C@@H](C(=O)NCCN)NC1=O` [Example 6, (8S,11S,14S)-14-amino-N-(2-aminoethyl)-11-(3-aminopropyl)-5,17-dihydroxy-10,1 3-dioxo-9,12-diazatricyclo[14.3.1.1^2,6]henicosa-1(20),2(21),3,5,16,18-hexaene-8-carboxamide]: the IC50 in assay [1] (Table A) and in assay [1] (Table B) was 500 nM each time. For the same molecule, the minimum inhibitory concentration (MIC) came to 8 µg/mL (≈ 16 µM) in assay [2] (setting [5]), 0.5 µg/mL (≈ 1 µM) in assay [3] (setting [6]) and 2 µg/mL (≈ 4.01 µM) in assay [4] (setting [7]).

Turning to `NC[C@H](O)C[C@@H]1NC(=O)[C@@H](N)Cc2cc(ccc2O)-c2ccc(O)c(c2)C[C@@H](C(=O)O)NC1=O` [Example 20A, 14(S)-Amino-1(S)-(3-amino-2(R)-hydroxypropyl)-5,17-dihydroxy-10,13-dioxo-9,12-diazatricyclo[14.3.1.1^2,6]henicosa-1(19),2,4,6(21),16(20),17-hexaene-8(S)-carboxylic acid dihydrochloride, reference compound], the IC50 in assay [1] (Table A) and in assay [1] (Table B) was 1500 nM in each case. Besides, the MIC in assay [2] (L4001, Table B, agar dilution, 20% defibrinated horse blood, read-out: MIC E. faecium L4001) is 0.5 µg/mL; in assay [3] (E33, Table B, agar dilution, 20% defibrinated horse blood, read-out: MIC S. aureus E33), less than 0.03 µg/mL; in assay [4] (T17, Table B, agar dilution, 20% defibrinated horse blood, read-out: MIC S. aureus T17), greater than 32 µg/mL.

The values above are taken from patent US20050256037A1, “Antibacterial amide macrocyles” (Bayer HealthCare AG, priority 2003, published 2005).
